Assay results taken from patent US20110151034A1, “ANTIBACTERIAL AGENT AND DISINFECTING METHOD” (Mitsubishi Chemical Corporation, priority 2008, published 2011).

What was measured:
[1] = system: Listeria monocytogenes ATCC49594; assay: Antibacterial test in BHI culture medium: turbidity, inhibitory ratio and bacteria growth (Experimental Example 2); type: cell-based; conditions: for Number of bacteria (cfu/ml): culture 30° C. 24 hours, then BHI agar 37° C. 24 hours; for Inhibitory ratio (%): from turbidity vs dimethylsulfoxide standard; for Inhibitory ratio (%) / Turbidity of culture fluid: 30° C. for 24 hours; for Turbidity of culture fluid: 660 nm
Experimental: The above obtained isolated components were diluted with dimethylsulfoxide (manufactured by KANTO CHEMICAL CO., INC.) to prepare three test liquids at fraction concentrations (wt %) of 2%, 1% and 0.5%. As positive controls, erythromycin (manufactured by Wako Pure Chemical Industries Ltd.) was dissolved in ethanol (Junsei Chemical Co., Ltd.) to have a concentration of 1,000 ppm, 500 ppm or 250 ppm. As a negative control, sterilized water was used.
The antibacterial test was carried out by using Listeria monocytogenes ATCC49594 as follows.
(1) 8.9 ml of a brain heart infusion (BHI) culture medium (manufactured by NISSUI PHARMACEUTICAL CO., LTD.) was put in a test tube and treated in an autoclave (manufactured by TOMY SEIKO CO., LTD., TOMY BS-325). The culture medium concentration was adjusted to achieve a specified concentration when 0.1 ml of the above test liquid was added.
Listeria monocytogenes ATCC 49594 was cultured in the BHI culture medium by shake culture at 37° C. for 1 hour and diluted to an appropriate bacteria concentration (2.0×10^3 cfu/ml) by the BHI culture medium.
To the test tube in which 8.9 ml of the BHI culture medium prepared in the above (1) was put, 0.1 ml of the prepared test liquid and 1 ml of the bacteria liquid prepared in the above (2) were added, stirred and left at rest at 30° C. for 24 hours.
The turbidity of the culture fluid in the test tube left at rest at 30° C. for 24 hours was measured by a turbidimeter (manufactured by TAITEC CORPORATION, miniphoto 518R) at a wavelength of 660 nm. The inhibitory ratio was calculated from the following formula, where A is the turbidly in the case of a culture fluid to which 0.1 ml of dimethylsulfoxide was added instead of the test liquid.
Inhibitory ratio (%)=[(A−[turbidity of culture fluid])/A]×100
The culture fluid in the test tube left at rest at 30° C. for 24 hours was diluted with a phosphate buffer solution (PBS) and smeared on a BHI agar medium. After culturing at 37° C. for 24 hours, the number of bacteria on the agar medium was measured by observation with a microscope. With respect to the dilution with PBS, the culture fluid was preliminarily properly diluted within a range of from 10^2 to 10^9 times to such a concentration that the number of bacteria can be counted with a microscope 24 hour later (the number of bacteria 24 hours later was calibrated in accordance with the proportion preliminarily diluted with PBS).

[2] = system: Listeria monocytogenes JCM2873; assay: Antibacterial test, colony formation on Mueller Hinton agar after culture with sample (Experimental Example 1); type: cell-based; conditions: 10 ppm at the time of test; 37° C. for 24 hours, then agar 37° C. for 2 days; negative control 3×10^8 cfu/ml
Experimental: The components (Terpenoid-1 and Terpenoid-2) isolated from the water-insoluble rosemary extract were dissolved in DMSO (dimethylsulfoxide) at a concentration of 2,000 ppm to obtain samples for antibacterial activity test. The antibacterial test was carried out as follows using Listeria monocytogenes JCM2873. 8.95 ml of Mueller Hinton Broth (MHB) culture medium was put in a test tube and sterilized in an autoclave. The culture medium concentration was adjusted to achieve a specified concentration when 50 μl of the sample was added. Listeria monocytogenes JCM2873 was cultured by shake culture at 37° C. for 1 day in the MHB culture medium, and diluted to an appropriate bacteria concentration (3.1×10^4 cfu/ml) by the MHB culture medium. To the test tube in which 8.95 ml of the MHB culture medium prepared in the above (1) was put, 50 μl of the sample and 1 ml of the bacteria liquid prepared in the above (2) were added and stirred (isolated component concentration at the time of test: 10 ppm) and left at rest at 37° C. for 24 hours. As a negative control and a positive control, sterilized water and erythromycin (solution at a concentration of 2,000 ppm in ethanol) were added instead of the sample. From the test tube left at rest at 37° C. for 24 hours, a loopful of the culture fluid was collected and smeared on a Mueller Hinton agar medium. After culturing at 37° C. for 2 days, formation of colonies on the agar medium and its degree were judged.

[3] = 50, 100, 200 ppm, same conditions as for Terpenoid-1 and Terpenoid-2
[4] = at a concentration of 50 ppm or higher

Compound	antibacterial activity against Listeria monocytogenes (in words) [1, 3]	Number of bacteria (cfu/ml) ([1]; added substance 50 ppm)	Inhibitory ratio (%) ([1]; added substance 50 ppm)	Number of bacteria (cfu/ml) ([1]; added substance 100 ppm)	Inhibitory ratio (%) ([1]; added substance 100 ppm)	Number of bacteria (cfu/ml) ([1]; added substance 200 ppm)	Inhibitory ratio (%) ([1]; added substance 200 ppm)	formation of colonies on the agar medium [2]	further results
CCO[C@H]1c2cc(C(C)C)c(O)c(O)c2[C@@]23CCCC(C)(C)[C@@H]2[C@@H]1OC3=O [7α-Ethoxyrosmanol, 7α-ethoxyrosmanol]	low or no antibacterial activity	2.5 × 10^9 cfu/ml	4.0	3.6 × 10^9 cfu/ml	0.5	3.8 × 10^9 cfu/ml	2.6		
CC(C)c1cc2c(c(O)c1O)[C@@]13CCCC(C)(C)[C@@H]1C[C@@H]2OC3=O [Carnosol]	low or no antibacterial activity	4.3 × 10^9 cfu/ml	0.0	4.7 × 10^9 cfu/ml	0.0	3.9 × 10^9 cfu/ml	0.0		
CC(C)c1cc2c(c(O)c1O)[C@@]13CCCC(C)(C)[C@@H]1[C@H](OC3=O)[C@@H]2O [Epirosmanol]	low or no antibacterial activity	4.0 × 10^9 cfu/ml	0.0	4.2 × 10^9 cfu/ml	0.0	3.2 × 10^9 cfu/ml	0.0		
CC(C)c1cc2c(c(O)c1O)[C@@]13CCCC(C)(C)[C@@H]1[C@H](OC3=O)[C@H]2O [Rosmanol]	low or no antibacterial activity	3.9 × 10^9 cfu/ml	10.2	3.7 × 10^9 cfu/ml	5.1	3.9 × 10^9 cfu/ml	16.0		
CC(C)c1cc2c(cc1O)[C@@]1(C)CCCC(C)(C)[C@@H]1CC2 [Terpenoid-1, ferruginol]		3.8 × 10^9 cfu/ml	4.6	1.6 × 10^9 cfu/ml	43.0	3.8 × 10^6 cfu/ml	100	no formation of colonies	Turbidity of culture fluid ([1]; added substance 50 ppm): 0.485; Turbidity of culture fluid ([1]; added substance 100 ppm): 0.290; Turbidity of culture fluid ([1]; added substance 200 ppm): −0.003; antibacterial activity against Listeria monocytogenes (in words) [1, 4]: confirmed to have antibacterial activity
C=C(C)[C@@H]1CC[C@]2(C(=O)O)CC[C@]3(C)[C@H](CC[C@@H]4[C@@]5(C)CC[C@H](O)C(C)(C)[C@@H]5CC[C@]43C)[C@@H]12 [Betulinic acid]		4.0 × 10^9 cfu/ml	0.0	4.5 × 10^9 cfu/ml	0.0	3.0 × 10^9 cfu/ml	0.0		
COc1c(C(C)C)cc2c(c1O)C1(C(=O)O)CCCC(C)(C)C1CC2 (stereo not drawn) [12-Methoxy-tarns-carnosic acid, 12-methoxy-trans-carnosic acid]	low or no antibacterial activity	3.1 × 10^9 cfu/ml	11.8	4.1 × 10^9 cfu/ml	17.7	4.3 × 10^9 cfu/ml	20.6		
CC(C)c1cc2c(cc1O)[C@H]1CCCC(C)(C)[C@@H]1CC2 [Terpenoid-2]		4.4 × 10^9 cfu/ml	7.2	2.5 × 10^9 cfu/ml	21.0	1.3 × 10^9 cfu/ml	47.2	no formation of colonies	Turbidity of culture fluid ([1]; added substance 50 ppm): 0.472; Turbidity of culture fluid ([1]; added substance 100 ppm): 0.402; Turbidity of culture fluid ([1]; added substance 200 ppm): 0.268; antibacterial activity against Listeria monocytogenes (in words) [1, 4]: confirmed to have antibacterial activity
CC[C@H]1OC(=O)[C@H](C)[C@@H](O[C@H]2C[C@@](C)(OC)[C@@H](O)[C@H](C)O2)[C@H](C)[C@@H](O[C@@H]2O[C@H](C)C[C@H](N(C)C)[C@H]2O)[C@](C)(O)C[C@@H](C)C(=O)[C@H](C)[C@@H](O)[C@]1(C)O [Erythromycin, erythromycin]								no formation of colonies	Turbidity of culture fluid ([1]; added substance 2.5 ppm): 0.011; Number of bacteria (cfu/ml) ([1]; added substance 2.5 ppm): 3.7 × 10^2 cfu/ml; Inhibitory ratio (%) ([1]; added substance 2.5 ppm): 97.8%; Turbidity of culture fluid ([1]; added substance 5 ppm): 0.022; Number of bacteria (cfu/ml) ([1]; added substance 5 ppm): 9.5 × 10^2 cfu/ml; Inhibitory ratio (%) ([1]; added substance 5 ppm): 95.6%; Turbidity of culture fluid ([1]; added substance 10 ppm): −0.008; Number of bacteria (cfu/ml) ([1]; added substance 10 ppm): 1.8 × 10^2 cfu/ml; Inhibitory ratio (%) ([1]; added substance 10 ppm): 98.4%; antibacterial property (in words) ([1]; concentration range of from 2.5 to 10 ppm): high antibacterial property
